For data set [1] the following is noted: cited from earlier work.
The subject of another data set is OATP2B1. On the set-up: method as in PMID 33435273. The settings on record: pyranine transport; cited from earlier work.
Data set [2] concerns the target T1, OATP1B3 (Homo sapiens, UniProt Q9NPD5).
T1 construct: expressed in transfected cells
T1 sequence (Q9NPD5 1-702): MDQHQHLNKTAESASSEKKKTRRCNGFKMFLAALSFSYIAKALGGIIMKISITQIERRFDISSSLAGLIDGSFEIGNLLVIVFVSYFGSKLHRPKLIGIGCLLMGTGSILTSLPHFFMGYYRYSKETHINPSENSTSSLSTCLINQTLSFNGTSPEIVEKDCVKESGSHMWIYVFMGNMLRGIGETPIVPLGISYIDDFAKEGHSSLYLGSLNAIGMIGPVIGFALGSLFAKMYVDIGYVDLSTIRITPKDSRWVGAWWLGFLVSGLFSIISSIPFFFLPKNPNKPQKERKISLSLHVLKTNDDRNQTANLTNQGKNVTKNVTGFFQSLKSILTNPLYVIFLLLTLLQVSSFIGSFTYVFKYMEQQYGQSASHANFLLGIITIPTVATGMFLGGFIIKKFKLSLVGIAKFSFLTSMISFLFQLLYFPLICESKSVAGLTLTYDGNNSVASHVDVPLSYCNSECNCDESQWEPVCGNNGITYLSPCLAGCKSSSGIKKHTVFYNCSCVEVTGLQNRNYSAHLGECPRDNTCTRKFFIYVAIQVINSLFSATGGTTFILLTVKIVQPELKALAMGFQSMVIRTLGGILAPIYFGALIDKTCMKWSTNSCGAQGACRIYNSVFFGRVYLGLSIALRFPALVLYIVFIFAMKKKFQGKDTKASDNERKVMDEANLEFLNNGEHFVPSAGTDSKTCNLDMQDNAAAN
The data set is described as follows: Inhibition of OATP1B3-mediated estradiol glucuronide uptake. It counts as cell-based. An excerpt: Generation, cultivation and characterization of human embryonic kidney (HEK) cells stably expressing OATP1B1 refseq (=OATP1B1*1a), OATP1B1*1b, OATP1B1*5 and OATP1B1*15 [18], OATP1B3 [19], OATP2B1 [13] and OCT1 [20] have been described previously. OATP1B1 cells were cultivated in minimal essential medium (Life Technologies, Paisley, UK) and OATP1B3, OATP2B1 and OCT1 cells were cultivated in Dulbecco’s modified Eagle medium (Sigma, Darmstadt, Germany). Cultivation media were supplemented with 10% fetal calf serum, 100 U/mL penicillin and 100 µg/mL streptomycin. Cells were grown at 37 °C and 5% CO2. Functionality of the cells was confirmed by measuring uptake of prototypic substrates (see Section 2.3 and supplementary material).
Prototypic substrate uptake was performed as described previously. For this, uptake solutions contained the respective substrate with tracer amounts of radiolabeled substrate. In case of inhibition studies, uptake solutions additionally contained different concentrations of remdesivir. […] Cells were then lysed with 0.2% sodium dodecyl sulfate and intracellular radioactivity was measured by liquid scintillation counting (Tricarb2800, PerkinElmer Life Sciences GmbH, Rodgau, Germany or Hidex 300SL TDCR liquid scintillation counter, Turku, Finland). […]

Data set [3] deals with OATP1B3. Also on record: method as in earlier work. Conditions: prototypic substrate not stated; cited from earlier work.

The term Cmax denotes the maximum level reached in the sampled fluid or tissue. Usually IC50 stands for the concentration at which inhibition is half-maximal. For the compound `CCC(CC)COC(=O)[C@H](C)N[P@](=O)(OC[C@H]1O[C@@](C#N)(c2ccc3c(N)ncnn23)[C@H](O)[C@@H]1O)Oc1ccccc1` [Remdesivir], in data set [1] (30 min after iv administration of 200 mg remdesivir for 30 min), the peak plasma concentration is around 10 µM. Moreover, in data set [1], the t1/2 was 1 h. For the same compound, the Cmax in data set [1] (intravenous 100 mg remdesivir, healthy adults) is 3.7 µM. For the same compound, the values for the IC50 in the data set with OATP2B1 and in the data set with OATP1B3 [3] were 3800 nM and 2100 nM, respectively. In addition, the “Effect on prototypic substrate uptake” value at OATP1B3 [2] (5 µM estradiol glucuronide, 5 min uptake, different remdesivir concentrations) is recorded as “significant concentration-dependent inhibitory effect”. In addition, the “Transporter inhibition at 10 µM” value on OATP1B3 [2] (10 µM remdesivir, estradiol glucuronide as substrate) is “inhibition”.
